Assay results published in EP0908457B1, “3-(1,2-benzisothiazol- and isoxazol-5-Y1)-2,4(1H,3H)-pyrimidinedione or thione and 3-(1,2-benzisothiazol- and isoxazol-5-y1)-4(3H)-pyrimidinone or thione herbicidal agents” (BASF AKTIENGESELLSCHAFT, priority 1997, dated 1999).

Legend:
Sagittaria pygmaea, L. = assay: Preemergence weed control under flooded paddy conditions, SAGPY (Arrowhead (Pygmaea)); type: in vivo; settings: preemergence, flooded paddy, rated three to four weeks after treatment
[1] = tested on: Echinochloa oryzoides (Ard.) Fritsch.; assay: Preemergence weed control under flooded paddy conditions, ECHORC (Watergrass (Calif.)); type: in vivo; settings: preemergence, flooded paddy, rated three to four weeks after treatment
[2] = tested on: Monochoria vaginalis, Presl.; assay: Preemergence weed control under flooded paddy conditions, MOOVA (Monochoria); type: in vivo; settings: preemergence, flooded paddy, rated three to four weeks after treatment
[3] = tested on: Oryza sativa, (L.) Tebonnet; assay: Rice tolerance to post-transplant applications under flooded paddy conditions (Example 187), ORYSAT (Rice, Tebonnet); settings: rated three to four weeks after treatment
Cyperus iria = assay: Preemergence weed control under flooded paddy conditions, CYPIR (Rice Flatsedge); type: in vivo; settings: preemergence, flooded paddy, rated three to four weeks after treatment
[4] = tested on: Cyperus serotinus, Rottb.; assay: Preemergence weed control under flooded paddy conditions, CYPSE (Flatsedge); type: in vivo; settings: preemergence, rated three to four weeks after treatment
Also: meaning of each grade not given here.

Row | SMILES | herbicidal effect rating, SAGPY (Sagittaria pygmaea, L.; Rate 0.0320 kg/ha) | herbicidal effect rating, SAGPY (Sagittaria pygmaea, L.; Rate 0.0620 kg/ha) | herbicidal effect rating, SAGPY (Sagittaria pygmaea, L.; Rate 0.1250 kg/ha) | herbicidal effect rating, SAGPY (Sagittaria pygmaea, L.; Rate 0.2500 kg/ha) | herbicidal effect rating, ECHORC ([1]; Rate 0.0320 kg/ha) | herbicidal effect rating, ECHORC ([1]; Rate 0.0620 kg/ha) | herbicidal effect rating, ECHORC ([1]; Rate 0.1250 kg/ha) | herbicidal effect rating, ECHORC ([1]; Rate 0.2500 kg/ha) | herbicidal effect rating, MOOVA ([2]; Rate 0.0320 kg/ha) | herbicidal effect rating, MOOVA ([2]; Rate 0.0620 kg/ha) | herbicidal effect rating, MOOVA ([2]; Rate 0.1250 kg/ha) | herbicidal effect rating, MOOVA ([2]; Rate 0.2500 kg/ha) | herbicidal effect rating ORYSAT ([3]; Rate 0.0320 kg/ha) | herbicidal effect rating ORYSAT ([3]; Rate 0.0620 kg/ha) | herbicidal effect rating ORYSAT ([3]; Rate 0.1250 kg/ha) | herbicidal effect rating ORYSAT ([3]; Rate 0.2500 kg/ha) | herbicidal effect rating, CYPIR (Cyperus iria; Rate 0.0320 kg/ha) | herbicidal effect rating, CYPIR (Cyperus iria; Rate 0.0620 kg/ha) | herbicidal effect rating, CYPIR (Cyperus iria; Rate 0.1250 kg/ha) | herbicidal effect rating, CYPIR (Cyperus iria; Rate 0.2500 kg/ha) | further results
1 | Cn1c(C(F)(F)F)cc(=O)n(-c2ccc3snc(C(=O)NS(=O)(=O)c4ccc(Cl)cc4)c3c2)c1=O [Example 356, 1,2-Benzisothiazole-3-carboxamide, N-[(p-chlorophenyl)sulfonyl]-5-[3,6-dihydro-3-methyl-2,6-dioxo-4-(trifluoromethyl)-1(2H)-pyrimidinyl]-] | 4.5 | 4.5 | 5.5 | 8.0 | 3.5 | 5.0 | 6.5 | 9.0 | 7.5 | 9.0 | 9.0 | 9.0 | 0.5 | 2.5 | 4.5 | 2.0 | 6.5 | 9.0 | 9.0 | 9.0 | herbicidal effect rating, CYPSE ([4]; Rate 0.0320 kg/ha): 0.0; herbicidal effect rating, CYPSE ([4]; Rate 0.0620 kg/ha): 0.0; herbicidal effect rating, CYPSE ([4]; Rate 0.1250 kg/ha): 5.0; herbicidal effect rating, CYPSE ([4]; Rate 0.2500 kg/ha): 6.5
2 | Cn1c(C(F)(F)F)cc(=O)n(-c2ccc3snc(C(=O)NS(=O)(=O)c4ccc5ccccc5c4)c3c2)c1=O [Example 357, 1,2-Benzisothiazole-3-carboxamide, 5-[3,6-dihydro-3-methyl-2,6-dioxo-4-(trifluoromethyl)-1(2H)-pyrimidinyl]-N-(2-naphthylsulfonyl)-] | 0.0 | 0.0 | 0.0 | 4.0 | 4.0 | 5.0 | 5.0 | 7.0 | 9.0 | 9.0 | 9.0 | 9.0 | 2.0 | 2.0 | 2.0 | 3.0 | 0.0 | 0.0 | 2.0 | 6.0 | herbicidal effect rating, CYPSE ([4]; Rate 0.0320 kg/ha): 0.0; herbicidal effect rating, CYPSE ([4]; Rate 0.0620 kg/ha): 0.0; herbicidal effect rating, CYPSE ([4]; Rate 0.1250 kg/ha): 0.0; herbicidal effect rating, CYPSE ([4]; Rate 0.2500 kg/ha): 0.0
3 | CCCCCCCCCCCCS(=O)(=O)NC(=O)c1nsc2ccc(-n3c(=O)cc(C(F)(F)F)n(C)c3=O)cc12 [Example 358, 1,2-Benzisothiazole-3-carboxamide, 5-[3,6-dihydro-3-methyl-2,6-dioxo-4-(trifluoromethyl)-1(2H)-pyrimidinyl]-N-(dodecylsulfonyl)-] | 5.0 | 5.0 | 6.0 | 6.0 | 4.0 | 5.0 | 5.0 | 5.0 | 9.0 | 9.0 | 9.0 | 9.0 | 2.0 | 3.0 | 3.0 | 3.0 | 0.0 | 0.0 | 0.0 | 7.0 | herbicidal effect rating, CYPSE ([4]; Rate 0.0320 kg/ha): 0.0; herbicidal effect rating, CYPSE ([4]; Rate 0.0620 kg/ha): 0.0; herbicidal effect rating, CYPSE ([4]; Rate 0.1250 kg/ha): 0.0; herbicidal effect rating, CYPSE ([4]; Rate 0.2500 kg/ha): 0.0
4 | Cn1c(C(F)(F)F)cc(=O)n(-c2ccc3snc(/C=C/CBr)c3c2)c1=O [Example 360, 2,4(1H,3H)-Pyrimidinedione, 3-[3-(3-bromopropenyl)-1,2-benzisothiazol-5-yl]-1-methyl-6-(trifluoromethyl)-, (E)-] | 1.5 | 4.5 | 4.5 | 9.0 | 0.0 | 2.0 | 5.0 | 7.5 | 4.5 | 4.5 | 4.5 | 9.0 | 1.0 | 2.0 | 3.5 | 9.0 | 0.0 | 2.5 | 9.0 | 9.0 | herbicidal effect rating, SAGPY (Sagittaria pygmaea, L.; Rate 0.5000 kg/ha): 9.0; herbicidal effect rating, ECHORC ([1]; Rate 0.5000 kg/ha): 9.0; herbicidal effect rating, MOOVA ([2]; Rate 0.5000 kg/ha): 9.0; herbicidal effect rating ORYSAT ([3]; Rate 0.5000 kg/ha): 9.0; herbicidal effect rating, CYPIR (Cyperus iria; Rate 0.5000 kg/ha): 9.0; herbicidal effect rating, CYPSE ([4]; Rate 0.0320 kg/ha): 0.0; herbicidal effect rating, CYPSE ([4]; Rate 0.0620 kg/ha): 0.0; herbicidal effect rating, CYPSE ([4]; Rate 0.1250 kg/ha): 0.0; herbicidal effect rating, CYPSE ([4]; Rate 0.2500 kg/ha): 9.0
5 | CN(C(=O)c1nsc2ccc(-n3c(=O)cc(C(F)(F)F)n(C)c3=O)cc12)c1ccc(Cl)cc1 [Example 365, 1,2-Benzisothiazole-3-carboxanilide, 4'-chloro-5-[3,6-dihydro-3-methyl-2,6-dioxo-4-(trifluoromethyl)-1(2H)-pyrimidinyl]-N-methyl-] | 3.0 | 5.0 | 5.0 | 5.0 | 4.0 | 6.0 | 9.0 | 9.0 | 9.0 | 9.0 | 9.0 | 9.0 | 3.0 | 5.0 | 5.0 | 5.0 | 4.0 | 6.0 | 6.0 | 9.0 | herbicidal effect rating, SAGPY (Sagittaria pygmaea, L.; Rate 0.5000 kg/ha): 6.0; herbicidal effect rating, ECHORC ([1]; Rate 0.5000 kg/ha): 9.0; herbicidal effect rating, MOOVA ([2]; Rate 0.5000 kg/ha): 9.0; herbicidal effect rating ORYSAT ([3]; Rate 0.5000 kg/ha): 6.0; herbicidal effect rating, CYPIR (Cyperus iria; Rate 0.5000 kg/ha): 9.0; herbicidal effect rating, CYPSE ([4]; Rate 0.0320 kg/ha): 4.0; herbicidal effect rating, CYPSE ([4]; Rate 0.0620 kg/ha): 4.0; herbicidal effect rating, CYPSE ([4]; Rate 0.1250 kg/ha): 4.0; herbicidal effect rating, CYPSE ([4]; Rate 0.2500 kg/ha): 9.0; herbicidal effect rating, CYPSE ([4]; Rate 0.5000 kg/ha): 9.0
